Assay results published in paper PMC9960274, “Peptidic Inhibitors and a Fluorescent Probe for the Selective Inhibition and Labelling of Factor XIIIa Transglutaminase” (Molecules, 2023).
Entries after “also recorded” stand apart in the source; their conditions may differ. Starred links: 1 amine or outer side, 2 acyl side, 3 side chain; linkers in the order of their positions; H or OH if unused. Non-standard residues stand in square brackets, D forms with d. Residues, ends and D or L forms follow the SMILES beside them. *: point of attachment. RhodamineB = CCN(CC)c1ccc2c(-c3ccccc3C(=O)*)c3ccc(=[N+](CC)CC)cc-3oc2c1; X1 = COC(=O)/C=C/CC[C@H](N[*:1])C(=O)[*:2]; X2 = COC(=O)C=CCCC[C@H](N[*:1])C(=O)[*:2]; X3 = COC(=O)C=CC[C@H](N[*:1])C(=O)[*:2]; Nle = CCCC[C@H](N)C(=O)O; Orn = NCCC[C@H](N)C(=O)O; Dab = NCC[C@H](N)C(=O)O; Acryloyl = C=CC(=O)*; Ahx = NCCCCCC(=O)O

Molecular target: T1, Human TG2 (Homo sapiens, UniProt P21980)
T1 construct: made in house
T1 sequence (P21980 1-687): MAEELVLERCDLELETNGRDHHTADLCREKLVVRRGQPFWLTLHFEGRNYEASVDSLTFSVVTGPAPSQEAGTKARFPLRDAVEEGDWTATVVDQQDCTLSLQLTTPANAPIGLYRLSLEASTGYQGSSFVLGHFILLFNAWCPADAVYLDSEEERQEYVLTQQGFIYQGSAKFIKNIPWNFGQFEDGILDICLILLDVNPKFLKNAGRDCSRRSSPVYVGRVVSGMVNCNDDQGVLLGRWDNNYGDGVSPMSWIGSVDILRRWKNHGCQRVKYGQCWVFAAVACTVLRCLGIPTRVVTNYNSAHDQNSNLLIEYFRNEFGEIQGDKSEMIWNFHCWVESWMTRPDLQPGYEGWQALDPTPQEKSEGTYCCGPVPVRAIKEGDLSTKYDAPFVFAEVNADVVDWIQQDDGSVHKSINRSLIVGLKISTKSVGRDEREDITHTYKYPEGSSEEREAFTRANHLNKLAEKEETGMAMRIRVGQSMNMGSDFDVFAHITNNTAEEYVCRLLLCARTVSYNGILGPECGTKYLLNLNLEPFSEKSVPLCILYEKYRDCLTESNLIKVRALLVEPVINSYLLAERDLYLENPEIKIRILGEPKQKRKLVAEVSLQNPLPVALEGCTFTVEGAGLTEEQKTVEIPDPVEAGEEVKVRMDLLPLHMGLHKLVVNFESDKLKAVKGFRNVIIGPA
Test: Colorimetric AL5 transamidase assay of TG2 inhibition kinetics
Format: biochemical
Details: for TG2 Inh. Mode: Irrev = irreversible, None = no inhibition detected up to 350 μM; for kinact/KI / kinact: irreversible inhibition; for TG2 inhibition: up to 360 µM; for kinact: saturation fit
Experimental: All inhibitors synthesised herein were evaluated for inhibition against FXIIIa, using the fluorescence-quenched A101 isopeptidase assay, and against TG2, using the colorimetric AL5 transamidase assay. The assay substrates A101 and AL5 both present labile bonds that are cleaved by the activities of their corresponding transglutaminases, resulting in the release of a fluorophore or chromophore moiety, respectively. The rate of consumption of these assay substrates, indicated by increases in fluorescence or absorbance over time, can be detected for measuring enzyme activity. Assays were run in duplicate at constant reporter substrate concentration with varying concentrations of inhibitor. The type of inhibition was determined through visual inspection of the fluorescence-time curvature; termination of the enzymatic reaction with the substrate at a plateau lower than the no-inhibitor positive control is indicative of irreversible inhibition. On the other hand, convergence to a common plateau indicates reversible inhibition.
A colorimetric transamidase assay using chromogenic substrate AL5 (Cbz-Glu(ɣ-p-nitrophenyl ester)Gly-OH) was used to determine TG2 inhibition kinetics as described previously. In brief, assays were conducted at 25 °C in 96-well plates, and absorbance at 405 nm was monitored continuously using a BioTek Synergy 4 plate reader. For each compound, 6 inhibitor concentrations were tested, along with positive (no inhibitor) and negative (no enzyme, no inhibitor) controls. All assays were run in duplicate as separate independent experiments. Human TG2 expressed and purified as described previously and stored in aqueous buffer at −80 °C, was first thawed and diluted to a working concentration of 50 mU/mL in the buffer. The diluted enzyme solution was stored on ice. The appropriate amount of distilled water, 125 μL of aqueous buffer (111 mM MOPS, 15.6 mM CaCl2, pH 6.9), the desired amount of inhibitor (from a DMSO stock solution), and 5.0 μL of AL5 (from a 5.56 mM DMSO solution) were added in that order to 7 Eppendorf tubes to reach final volumes of 250 μL per tube. After mixing thoroughly, 180 μL of the mixture from each tube was transferred to plate wells. To initiate the assay, 20 μL of the diluted TG2 solution was added using a multichannel pipette to each well except the negative control, which was treated with water. The final reaction conditions were pH 6.9, 50.0 mM MOPS, 7.0 mM CaCl2, 100 μM AL5, and 5 mU/mL TG2. […] Data collection was then initiated after mixing by quick aspiration, and the assay was allowed to run for 20 min.
The type of inhibition for both TG2 and FXIIIa was primarily determined by visual inspection of kinetic traces. […] This assumption was tested and validated with inhibitor 47 through an A101 substrate spike experiment. Additional A101 (5 μL of 4000 μM stock in DMSO) was added to enzymatic reactions lacking in inhibitor (positive control) and pre-treated with inhibitor (50, 100, 150, 200 μM) after the initial reactions were complete and fluorescence plateaus had been reached. Data collection at 37 °C was re-commenced immediately after the addition, and fluorescence was monitored over time as previously described. On the other hand, inhibitors producing kinetic curves in which earlier and lower plateaus in fluorescence or absorbance were observed as inhibitor concentration was increased were assumed to be operating through irreversible time-dependent covalent inactivation. This assumption was tested and validated with inhibitor 23 through an A101 substrate spike experiment in which an additional 5 μL of A101 substrate stock solution (4000 μM in DMSO) was added to the positive control and highest inhibitor concentration (200 μM) reaction. […]

[1] = small molecule series, irreversible KI for 87 and 88

TG2 Inh. Mode	TG2 inhibition (small molecule series)	Molecule	also measured
No inhibition; also recorded: None **		C=CC(=O)NCC[C@H](NC(=O)[C@@H](CC(=O)O)NC(C)=O)C(=O)N[C@@H](CCCC)C(=O)N[C@@H](CCCC)C(=O)N[C@@H](CC(C)C)C(=O)N1CCC[C@H]1C(=O)N[C@@H](Cc1c[nH]c2ccccc12)C(=O)N1CCC[C@H]1C(=O)O [Compound 12, Ac-D-Asp-Dab(Acrylamide)-Nle-Nle-Leu-Pro-Trp-Pro-OH] (Ac-[dD][Dab](Acryloyl)[Nle][Nle]LPWP-OH)	
No inhibition; also recorded: None **		C=CC(=O)NCCC[C@H](NC(=O)[C@@H](CC(=O)O)NC(C)=O)C(=O)N[C@@H](CCCC)C(=O)N[C@@H](CCCC)C(=O)N[C@@H](CC(C)C)C(=O)N1CCC[C@H]1C(=O)N[C@@H](Cc1c[nH]c2ccccc12)C(=O)N1CCC[C@H]1C(=O)O [Compound 13] (Ac-[dD][Orn](Acryloyl)[Nle][Nle]LPWP-OH)	
No inhibition; also recorded: None **		C=CC(=O)NCCCC[C@H](NC(=O)[C@@H](CC(=O)O)NC(C)=O)C(=O)N[C@@H](CCCC)C(=O)N[C@@H](CCCC)C(=O)N[C@@H](CC(C)C)C(=O)N1CCC[C@H]1C(=O)N[C@@H](Cc1c[nH]c2ccccc12)C(=O)N1CCC[C@H]1C(=O)O [Compound 14] (Ac-[dD]K(Acryloyl)[Nle][Nle]LPWP-OH)	
Irrev		CCCC[C@H](NC(=O)[C@H](CCCC=CC(=O)OC)NC(=O)[C@@H](CC(=O)O)NC(C)=O)C(=O)N[C@@H](CCCC)C(=O)N[C@@H](CC(C)C)C(=O)N1CCC[C@H]1C(=O)N[C@@H](Cc1c[nH]c2ccccc12)C(=O)N1CCC[C@H]1C(=O)O [Compound 47] (Ac-[dD][X2][Nle][Nle]LPWP-OH)	kinact/KI: 530 M⁻¹ s⁻¹
	No inhibition	C=CC(=O)NCC(NC(=O)CC(=O)O)C(=O)N1CCN(C(=O)c2cccc3ccccc23)CC1 (stereo not drawn) [Compound 72]	
	No inhibition	C=CC(=O)NCC(NC(=O)CCC(=O)O)C(=O)N1CCN(C(=O)c2cccc3ccccc23)CC1 [Compound 77, Succinyl-L-Dap(Acryl)-Piperazine-Naphthoyl]	
	No inhibition	C=CC(=O)NC(CNC(=O)CCC(=O)O)C(=O)N1CCN(C(=O)c2cccc3ccccc23)CC1 (stereo not drawn) [Compound 84]	

Further lines, the molecule ahead of its results:

Molecule	TG2 Inh. Mode	TG2 inhibition (small molecule series)	also measured
CCCC[C@H](NC(=O)[C@H](CC=CC(=O)OC)NC(=O)[C@@H](CC(=O)O)NC(C)=O)C(=O)N[C@@H](CCCC)C(=O)N[C@@H](CC(C)C)C(=O)N1CCC[C@H]1C(=O)N[C@@H](Cc1c[nH]c2ccccc12)C(=O)N1CCC[C@H]1C(=O)O [Compound 45] (Ac-[dD][X3][Nle][Nle]LPWP-OH)	No inhibition; also recorded: lack of inhibition; also recorded: None **		
C=CC(=O)NCC(NC(=O)CC(=O)O)C(=O)N1CCN(S(=O)(=O)c2cccc3c(N(C)C)cccc23)CC1 (stereo not drawn) [Compound 71]		No inhibition	
C=CC(=O)NCC(NC(=O)C1(C(=O)OC)CC1)C(=O)N1CCN(S(=O)(=O)c2cccc3c(N(C)C)cccc23)CC1 (stereo not drawn) [Compound 73]		No inhibition	
C=CC(=O)NCC(NC(=O)C1(C(=O)O)CC1)C(=O)N1CCN(S(=O)(=O)c2cccc3c(N(C)C)cccc23)CC1 [Compound 74, Acid-Cyclopropyl-L-Dap(Acryl)-Piperazine-Dansyl]		No inhibition	
C=CC(=O)NCC(NC(=O)CCC(=O)O)C(=O)N1CCN(S(=O)(=O)c2cccc3c(N(C)C)cccc23)CC1 [Compound 75, Succinyl-L-Dap(Acryl)-Piperazine-Dansyl]		No inhibition	
C=CC(=O)NCC(NC(=O)CCC(=O)O)C(=O)N1CCN(S(=O)(=O)c2cccc3ccccc23)CC1 [Compound 76, Succinyl-L-Dap(Acryl)-Piperazine-Sulfonyl-Naphthalene]		No inhibition	
C=CC(=O)NCC(NS(=O)(=O)CC(=O)O)C(=O)N1CCN(S(=O)(=O)c2cccc3c(N(C)C)cccc23)CC1 (stereo not drawn) [Compound 79]		No inhibition	
COC(=O)C=CCCC(NC(=O)CCC(=O)O)C(=O)N1CCN(C(=O)c2cccc3ccccc23)CC1 (stereo not drawn) [Compound 87]			kinact/KI: 139 M⁻¹ s⁻¹; kinact: 0.00199 s⁻¹; Ki [1]: 14.3 ± 7 µM
COC(=O)C=CCCC(NC(=O)c1ccccc1C(=O)O)C(=O)N1CCN(C(=O)c2cccc3ccccc23)CC1 (stereo not drawn) [Compound 88]			kinact/KI: 104 M⁻¹ s⁻¹; kinact: 0.0022 s⁻¹; KI (inactivation) [1]: 21.2 ± 8.96 µM; Ki [1]: 21.2 ± 9 µM
CCCC[C@H](NC(=O)[C@H](CC/C=C/C(=O)OC)NC(=O)[C@@H](CC(=O)O)NC(=O)CCCCCNC(=O)[C@@H]1CCCN1C(=O)c1ccccc1-c1c2ccc(=[N+](CC)CC)cc-2oc2cc(N(CC)CC)ccc12)C(=O)N[C@@H](CCCC)C(=O)N[C@@H](CC(C)C)C(=O)N1CCC[C@H]1C(=O)N[C@@H](Cc1c[nH]c2ccccc12)C(=O)N1CCC[C@H]1C(=O)O [Compound 93] (RhodamineB-P[Ahx][dD][X1][Nle][Nle]LPWP-OH)			kinact/KI: 325 M⁻¹ s⁻¹
Ac-D-Asp-Dap(Acrylamide)-Nle-Nle-Leu-Pro-Trp-Pro-OH [Compound 11]	No inhibition; also recorded: None **		
